Assay results from patent US5948802A, “Benzoate derivatives of diaryl 1,3,4-oxadiazolone” (Bristol-Myers Squibb Company, priority 1999, dated 1999).
Structures can show the parent of a compound that is named as a salt.

How the values were obtained:
[1] = system: cloned mammalian (mSlo or hSlo) BK-mediated outward current; experiment: Increase of cloned BK-mediated outward current in Xenopus oocytes, two-electrode voltage clamp; type: cell-based; details: 1 μM; at least 5 oocytes; mSlo or hSlo expressed in Xenopus oocytes
Description: (§1) The ability of the compound of Preparation 1 to open BK channels and increase whole-cell outward (K^+) BK-mediated currents was assessed under voltage-clamp conditions by determining their ability to increase cloned mammalian (mSlo or hSlo) BK-mediated outward current heterologously expressed in Xenopus oocytes [Butler, A., et al., Science, 261, pp. 221-224 (1993); and Dworetzky, S. I., et al., Mol. Brain Res., 27, pp.189-193 (1994)]. The two BK constructs employed represent nearly structurally identical homologous proteins, and have proven to be pharmacologically identical in our tests. To isolate BK current from native (background, non-BK) current, the specific and potent BK channel-blocking toxin iberiotoxin (IBTX) [Galvez, A., et al., J. Biol. Chem, 265, pp. 11083-11090 (1990)] was employed at a supramaximal concentration (50 nM). The relative contribution of BK channels current to total outward current was determined by subtraction of the current remaining in the presence of IBTX (non-BK current) from the current profiles obtained in all other experimental conditions (control, drug, and wash). […]

[2] = system: focal cerebral ischemia; experiment: Focal stroke model: permanent MCA and CCA occlusion, cortical infarct volume; type: in vivo, Wistar rat; details: 10 μg/kg i.v. single bolus two hours after MCA occlusion; measured 24 hours after MCAO; vs vehicle-treated (water) control
Description: To determine the ability of the compounds of the present invention to reduce cell loss resulting from neuronal ischemia, a standard focal cerebral ischemia is induced by permanent occlusion of the left middle cerebral artery (MCA) and common carotid artery (CCA) with one hour occlusion of the right CCA in the Wistar rat. The surgeries are performed using the sub-temporal approach of A. Tamura, et al., J. Cereb. Blood Flow Metab., 1, pp. 53-60, (1981) and its modifications [K. Osborne, et al., J. Neurol Neurosurg. Psychiatry, 50, pp. 402-410 (1987) and S. Menzies,et al., Neurosurgery, 31, pp. 100-107, (1992).]
The compound of Preparation 1 was evaluated in the focal stroke model involving permanent occlusion of the left MCA (MCAO) and CCA (CCAO) and temporary occlusion of the right CCA in the Wistar rat. This procedure results in a reliably large neocortical infarct volume that is measured by means of vital dye exclusion in serial slices through the brain 24 hours after MCAO. In the present test, compounds were administered using an i.v. or i.p. route of administration two hours after occlusion.

[3] = system: non-BK native currents in the oocytes; experiment: Effect on non-BK (IBTX-insensitive) native currents in oocytes; type: cell-based, Xenopus; details: at the tested concentration
Description: as §1

[4] = Rapid screen of prodrug hydrolysis and drug release in plasma; type: in vitro ADME; details: 10 ug/mL in fresh rat plasma at 37° C.; analysis 5 minutes after incubation; stock 1 mg/mL in PEG-400
Description: A rapid screen to determine the ability of prodrugs to hydrolyze and release the drug (compound of Preparation 1) is conducted as follows. A 1 mg/mL stock solution of the prodrug is prepared in distilled water or acetonitrile or PEG-400. Plasma from freshly collected rat or human blood is used in this assay. To 1 mL of plasma at 37° C. was added 10 μL of stock solution of prodrug and mixed gently. Immediately after the mixing, 100 μL of plasma was removed and quenched with 300 μL of acetontrile (Zero time sample). Samples were also obtained at 30 minutes and quenched immediately. The quenched samples were centrifuged to obtain a clear supernatant for analysis. The stock solution, T=0 and T=30 samples were analyzed by a HPLC assay that separates the drug from the prodrug. Based on the relative peak areas of prodrug and drug in these samples, different prodrugs are characterized as fast, moderate and slow release agents. For example, in this model, the compound of Example 1 was dissolved in PEG-400 at a concentration of 1 mg/mL and incubated at 10 ug/mL in fresh rat plasma at 37° C.

SMILES | BK current, % of control of IBTX-sensitive current [1] | reduction of cortical infarct volume [2] | effect on non-BK native currents in the oocytes [3] | conversion of prodrug to the compound of Preparation 1 [4]
O=c1oc(-c2ccc(C(F)(F)F)cc2)nn1Cc1cc(Cl)ccc1O [Preparation 1, 3-[(5-Chloro-2-hydroxyphenyl)methyl]-5-[4-(trifluoromethyl)phenyl]-1,3,4-oxadiazol-2(3H)-one] | 126% | about 18% | did not effect non-BK native currents | –
CCN(CC)Cc1ccc(C(=O)Oc2ccc(Cl)cc2Cn2nc(-c3ccc(C(F)(F)F)cc3)oc2=O)cc1 [Example 1, 4-Chloro-2-[[5-[4-(trifluoromethyl)phenyl]-2,3-dihydro-2-oxo-1,3,4-oxadiazol-3-yl]methyl]phenyl 4-[(diethylamino)-methylbenzoate hydrochloride] | – | – | – | indicated conversion of the compound of Example 1 to the compound of Preparation 1
